For data set [1], the target named is High affinity nerve growth factor receptor (Homo sapiens, UniProt P04629). Nature of the data set: Inhibition of TRKA (unknown origin) using TK as substrate in presence of ATP incubated for 30 mins by HTRF KinEASE assay.
Data set [2] has as its target Serine/threonine-protein kinase PAK 4 (Homo sapiens, UniProt O96013). Nature of the data set: Inhibition of PAK4 (unknown origin).
In data set [3] the target is T1, Serine/threonine-protein kinase PLK4 (Homo sapiens, UniProt O00444).
T1 sequence (O00444 whole entry): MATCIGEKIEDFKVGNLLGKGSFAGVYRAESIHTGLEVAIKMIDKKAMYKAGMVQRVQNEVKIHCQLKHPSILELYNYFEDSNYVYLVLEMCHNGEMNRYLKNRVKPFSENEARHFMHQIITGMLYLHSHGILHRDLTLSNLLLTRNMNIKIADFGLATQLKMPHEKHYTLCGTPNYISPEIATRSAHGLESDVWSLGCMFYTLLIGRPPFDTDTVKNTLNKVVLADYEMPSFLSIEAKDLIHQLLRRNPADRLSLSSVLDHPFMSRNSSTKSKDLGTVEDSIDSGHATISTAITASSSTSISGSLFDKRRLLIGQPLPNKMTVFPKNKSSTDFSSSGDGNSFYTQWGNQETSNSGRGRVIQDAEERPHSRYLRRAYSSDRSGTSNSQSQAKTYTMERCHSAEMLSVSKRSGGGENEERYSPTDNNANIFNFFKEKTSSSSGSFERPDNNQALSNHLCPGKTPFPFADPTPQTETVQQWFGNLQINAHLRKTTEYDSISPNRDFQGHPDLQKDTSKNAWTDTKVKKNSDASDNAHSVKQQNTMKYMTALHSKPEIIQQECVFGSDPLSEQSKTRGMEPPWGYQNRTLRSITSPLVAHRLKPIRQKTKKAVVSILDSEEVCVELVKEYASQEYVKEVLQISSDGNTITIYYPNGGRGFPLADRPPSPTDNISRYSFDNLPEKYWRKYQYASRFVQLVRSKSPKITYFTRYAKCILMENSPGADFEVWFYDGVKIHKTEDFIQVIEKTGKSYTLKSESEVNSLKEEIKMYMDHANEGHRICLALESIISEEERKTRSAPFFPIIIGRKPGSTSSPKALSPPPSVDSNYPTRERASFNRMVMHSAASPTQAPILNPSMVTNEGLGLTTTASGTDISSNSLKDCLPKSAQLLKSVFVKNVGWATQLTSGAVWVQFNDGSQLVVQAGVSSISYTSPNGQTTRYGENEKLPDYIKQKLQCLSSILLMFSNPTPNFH
The experiment in a line: Inhibition of PLK4 (unknown origin).

In the next data set the target is Focal adhesion kinase 1 (Homo sapiens, UniProt Q05397). The experiment in a line: Inhibition of FAK (unknown origin).
Sequence of Focal adhesion kinase 1 (Q05397 whole entry): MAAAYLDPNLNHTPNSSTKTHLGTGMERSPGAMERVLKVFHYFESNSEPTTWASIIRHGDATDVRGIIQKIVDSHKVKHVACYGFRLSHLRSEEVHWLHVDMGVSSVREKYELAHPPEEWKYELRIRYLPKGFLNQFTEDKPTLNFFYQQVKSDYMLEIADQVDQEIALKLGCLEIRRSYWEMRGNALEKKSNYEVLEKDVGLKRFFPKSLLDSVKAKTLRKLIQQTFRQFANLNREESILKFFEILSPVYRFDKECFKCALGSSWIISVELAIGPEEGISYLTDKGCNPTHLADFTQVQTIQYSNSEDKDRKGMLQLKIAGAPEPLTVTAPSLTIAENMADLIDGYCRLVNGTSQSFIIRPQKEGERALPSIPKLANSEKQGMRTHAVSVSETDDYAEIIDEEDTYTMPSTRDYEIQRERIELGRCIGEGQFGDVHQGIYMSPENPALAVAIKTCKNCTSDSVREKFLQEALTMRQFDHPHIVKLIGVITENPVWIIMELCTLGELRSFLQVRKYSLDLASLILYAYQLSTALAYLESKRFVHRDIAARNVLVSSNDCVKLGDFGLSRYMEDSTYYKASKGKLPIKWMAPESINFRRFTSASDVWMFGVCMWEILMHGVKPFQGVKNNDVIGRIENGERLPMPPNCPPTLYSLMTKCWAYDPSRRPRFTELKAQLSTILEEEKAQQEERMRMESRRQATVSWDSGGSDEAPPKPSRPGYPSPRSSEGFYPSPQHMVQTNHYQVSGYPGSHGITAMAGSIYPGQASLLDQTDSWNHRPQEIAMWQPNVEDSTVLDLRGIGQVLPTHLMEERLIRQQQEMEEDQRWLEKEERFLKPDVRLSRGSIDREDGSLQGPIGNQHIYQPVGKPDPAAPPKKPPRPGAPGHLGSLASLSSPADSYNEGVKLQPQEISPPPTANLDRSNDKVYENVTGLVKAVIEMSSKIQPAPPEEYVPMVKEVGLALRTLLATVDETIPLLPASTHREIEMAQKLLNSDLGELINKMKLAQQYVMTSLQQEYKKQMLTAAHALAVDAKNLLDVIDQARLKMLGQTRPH
Data set [4] can be described thus: Stability in human plasma assessed as parent compound remaining at 100 uM and measured after 0 mins by LC-MS/MS analysis. Type of data set: ADME, cell-free. The note with it: read-out: Stability.
A short description of data set [5]: Stability in human plasma assessed as parent compound remaining at 100 uM and measured after 10 mins by LC-MS/MS analysis. Type of data set: ADME, cell-free. The following applies: read-out: Stability.
Data set [6] in a line: Stability in human plasma assessed as parent compound remaining at 100 uM and measured after 60 mins by LC-MS/MS analysis. The note with it: read-out: Stability. It is filed as ADME, cell-free.
The next data set addresses CYP3A4 (Homo sapiens, UniProt P08684). The experiment in a line: Inhibition of CYP3A4 in human liver microsomes using midazolam as substrate at 10 uM preincubated for 10 mins followed by NADPH addition and measured after 15 mins by LC-MS/MS analysis. It is filed as ADME, Microsome. The following applies: probe midazolam, time 25 min.
Another data set deals with CYP2C19 (Homo sapiens, UniProt P33261). Nature of the data set: Inhibition of CYP2C19 in human liver microsomes using S-mephenytoin as substrate at 10 uM preincubated for 10 mins followed by NADPH addition and measured after 15 mins by LC-MS/MS analysis. Type of data set: ADME, Microsome. The note with it: probe S-mephenytoin, time 25 min.
Sequence of CYP2C19 (P33261 whole entry): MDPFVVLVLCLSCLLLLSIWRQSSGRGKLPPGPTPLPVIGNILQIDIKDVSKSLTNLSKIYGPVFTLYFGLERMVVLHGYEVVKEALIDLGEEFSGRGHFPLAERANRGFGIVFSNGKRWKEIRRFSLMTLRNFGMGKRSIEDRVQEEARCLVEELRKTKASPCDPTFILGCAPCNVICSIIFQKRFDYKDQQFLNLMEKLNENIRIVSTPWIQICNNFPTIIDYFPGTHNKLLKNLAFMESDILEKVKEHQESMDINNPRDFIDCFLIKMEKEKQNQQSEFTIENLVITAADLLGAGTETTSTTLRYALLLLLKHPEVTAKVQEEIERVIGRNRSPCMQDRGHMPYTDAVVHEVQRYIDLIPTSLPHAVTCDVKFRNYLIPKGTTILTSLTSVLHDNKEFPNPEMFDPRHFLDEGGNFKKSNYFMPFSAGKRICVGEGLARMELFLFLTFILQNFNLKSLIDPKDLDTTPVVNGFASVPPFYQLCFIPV
The target in the next data set is CYP2D6 (Homo sapiens, UniProt P10635). The experiment in a line: Inhibition of CYP2D6 in human liver microsomes using dextromethorphan as substrate at 10 uM preincubated for 10 mins followed by NADPH addition and measured after 15 mins by LC-MS/MS analysis. Type of data set: ADME, Microsome. The following applies: probe dextromethorphan, time 25 min.
Sequence of CYP2D6 (P10635 whole entry): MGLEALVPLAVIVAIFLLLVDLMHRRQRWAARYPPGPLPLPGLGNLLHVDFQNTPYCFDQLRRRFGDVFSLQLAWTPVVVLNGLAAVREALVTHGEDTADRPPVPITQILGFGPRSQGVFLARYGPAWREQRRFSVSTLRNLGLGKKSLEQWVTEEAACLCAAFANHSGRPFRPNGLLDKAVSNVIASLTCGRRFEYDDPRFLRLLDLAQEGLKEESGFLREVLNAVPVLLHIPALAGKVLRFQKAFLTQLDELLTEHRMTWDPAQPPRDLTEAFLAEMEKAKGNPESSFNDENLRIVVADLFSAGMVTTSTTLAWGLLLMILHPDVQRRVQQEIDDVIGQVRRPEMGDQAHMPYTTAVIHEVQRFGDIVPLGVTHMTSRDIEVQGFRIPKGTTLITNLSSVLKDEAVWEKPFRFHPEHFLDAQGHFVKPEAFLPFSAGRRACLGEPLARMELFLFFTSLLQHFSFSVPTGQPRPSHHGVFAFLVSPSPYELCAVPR
Data set [7] is described as follows: Stability in human plasma assessed as parent compound remaining at 100 uM and measured after 30 mins by LC-MS/MS analysis. The note with it: read-out: Stability. It is filed as ADME, cell-free.
The target in the next data set is CYP2C9 (Homo sapiens, UniProt P11712). The experiment in a line: Inhibition of CYP2C9 in human liver microsomes using diclofenac as substrate at 10 uM preincubated for 10 mins followed by NADPH addition and measured after 15 mins by LC-MS/MS analysis. The note with it: probe diclofenac, time 25 min. It is filed as ADME, Microsome.
Sequence of CYP2C9 (P11712 whole entry): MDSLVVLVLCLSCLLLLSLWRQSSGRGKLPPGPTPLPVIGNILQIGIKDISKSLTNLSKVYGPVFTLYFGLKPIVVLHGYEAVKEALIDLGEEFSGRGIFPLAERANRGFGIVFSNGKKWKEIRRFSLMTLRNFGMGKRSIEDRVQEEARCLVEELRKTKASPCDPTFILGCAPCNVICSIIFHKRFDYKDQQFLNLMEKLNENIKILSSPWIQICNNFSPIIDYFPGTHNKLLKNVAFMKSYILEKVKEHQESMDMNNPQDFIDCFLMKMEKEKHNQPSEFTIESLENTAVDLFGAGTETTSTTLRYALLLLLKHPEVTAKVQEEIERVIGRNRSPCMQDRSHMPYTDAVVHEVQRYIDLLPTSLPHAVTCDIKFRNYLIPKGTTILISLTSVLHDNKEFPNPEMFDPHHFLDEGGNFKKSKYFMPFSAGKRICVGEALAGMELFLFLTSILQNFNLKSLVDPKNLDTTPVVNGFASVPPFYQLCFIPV
For another data set, the target named is T2, CYP1A2 (Homo sapiens, UniProt P05177).
T2 sequence (P05177 whole entry): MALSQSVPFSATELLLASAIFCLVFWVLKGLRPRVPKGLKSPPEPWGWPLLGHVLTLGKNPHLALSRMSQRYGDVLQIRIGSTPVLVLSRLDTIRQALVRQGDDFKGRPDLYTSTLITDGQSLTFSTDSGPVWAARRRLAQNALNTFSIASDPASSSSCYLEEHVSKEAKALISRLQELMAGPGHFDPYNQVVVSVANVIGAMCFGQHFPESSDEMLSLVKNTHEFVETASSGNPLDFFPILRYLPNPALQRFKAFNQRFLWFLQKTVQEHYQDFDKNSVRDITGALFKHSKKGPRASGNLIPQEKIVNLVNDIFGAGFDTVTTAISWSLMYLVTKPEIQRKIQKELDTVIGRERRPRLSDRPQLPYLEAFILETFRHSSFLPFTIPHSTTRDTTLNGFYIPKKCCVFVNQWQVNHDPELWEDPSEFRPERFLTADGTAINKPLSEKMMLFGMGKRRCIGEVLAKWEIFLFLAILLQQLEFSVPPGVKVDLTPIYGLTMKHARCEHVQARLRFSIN
Nature of the data set: Inhibition of CYP1A2 in human liver microsomes using phenacetin as substrate at 10 uM preincubated for 10 mins followed by NADPH addition and measured after 15 mins by LC-MS/MS analysis. It is filed as ADME, Microsome. The note with it: probe phenacetin, time 25 min.

Data set [8] is described as follows: Stability in human plasma assessed as half life at 100 uM and measured after 120 mins by LC-MS/MS analysis. It is filed as ADME, cell-free.
Data set [9] is described as follows: Stability in human plasma assessed as parent compound remaining at 100 uM and measured after 120 mins by LC-MS/MS analysis. Type of data set: ADME, cell-free. The note with it: read-out: Stability.
The test system of the next data set is MCF7. The experiment in a line: Antiproliferative activity against human MCF7 cells assessed as cell growth inhibition incubated for 72 hrs by CCK-8 assay. The following applies: MCF7, 72 h. Type of data set: functional, cell-based.
Another data set relates to KM12. Nature of the data set: Antiproliferative activity against human KM12 cells assessed as cell growth inhibition incubated for 72 hrs by CCK-8 assay. It is filed as functional, cell-based. The following applies: KM12, 72 h.
The nature of data set [10]: Inhibition of tyrosine kinase (unknown origin). Also noted: species or system Homo sapiens.

Each structure is given as a SMILES string.

Sequence of High affinity nerve growth factor receptor (P04629 whole entry): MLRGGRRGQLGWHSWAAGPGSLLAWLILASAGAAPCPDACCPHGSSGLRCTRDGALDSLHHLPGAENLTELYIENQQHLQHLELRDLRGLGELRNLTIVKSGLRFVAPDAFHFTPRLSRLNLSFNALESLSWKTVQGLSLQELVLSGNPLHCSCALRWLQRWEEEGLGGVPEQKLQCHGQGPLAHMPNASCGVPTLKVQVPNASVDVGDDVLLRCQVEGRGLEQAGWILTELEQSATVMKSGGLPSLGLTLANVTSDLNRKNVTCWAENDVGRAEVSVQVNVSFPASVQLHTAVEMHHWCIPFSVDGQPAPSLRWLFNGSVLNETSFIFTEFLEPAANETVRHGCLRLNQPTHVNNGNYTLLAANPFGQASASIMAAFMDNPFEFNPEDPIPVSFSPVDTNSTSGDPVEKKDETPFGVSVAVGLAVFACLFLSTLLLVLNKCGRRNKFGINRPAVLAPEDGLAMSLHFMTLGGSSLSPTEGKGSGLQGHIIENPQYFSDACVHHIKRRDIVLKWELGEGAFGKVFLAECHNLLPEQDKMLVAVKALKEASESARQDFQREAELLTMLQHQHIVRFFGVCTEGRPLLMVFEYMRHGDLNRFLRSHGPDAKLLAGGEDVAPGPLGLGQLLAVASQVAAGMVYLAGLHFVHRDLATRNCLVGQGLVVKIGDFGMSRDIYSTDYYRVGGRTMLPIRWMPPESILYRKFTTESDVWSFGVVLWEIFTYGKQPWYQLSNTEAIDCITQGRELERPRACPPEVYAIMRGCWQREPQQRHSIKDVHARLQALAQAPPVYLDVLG
Sequence of Serine/threonine-protein kinase PAK 4 (O96013 whole entry): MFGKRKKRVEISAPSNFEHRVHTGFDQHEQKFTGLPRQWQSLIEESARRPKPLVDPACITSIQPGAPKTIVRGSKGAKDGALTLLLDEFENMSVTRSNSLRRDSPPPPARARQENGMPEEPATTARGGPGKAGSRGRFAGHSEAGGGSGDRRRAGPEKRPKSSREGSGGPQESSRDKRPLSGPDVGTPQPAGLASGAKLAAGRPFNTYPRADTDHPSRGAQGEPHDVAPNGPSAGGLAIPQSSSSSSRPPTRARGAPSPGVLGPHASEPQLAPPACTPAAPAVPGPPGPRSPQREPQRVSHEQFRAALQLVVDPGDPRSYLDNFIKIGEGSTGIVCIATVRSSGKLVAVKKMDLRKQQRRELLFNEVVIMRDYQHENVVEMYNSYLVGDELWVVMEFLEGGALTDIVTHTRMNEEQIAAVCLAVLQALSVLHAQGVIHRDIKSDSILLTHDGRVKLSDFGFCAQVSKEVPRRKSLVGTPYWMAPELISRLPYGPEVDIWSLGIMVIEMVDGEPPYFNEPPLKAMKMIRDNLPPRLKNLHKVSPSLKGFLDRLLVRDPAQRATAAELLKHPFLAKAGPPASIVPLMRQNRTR
Sequence of CYP3A4 (P08684 whole entry): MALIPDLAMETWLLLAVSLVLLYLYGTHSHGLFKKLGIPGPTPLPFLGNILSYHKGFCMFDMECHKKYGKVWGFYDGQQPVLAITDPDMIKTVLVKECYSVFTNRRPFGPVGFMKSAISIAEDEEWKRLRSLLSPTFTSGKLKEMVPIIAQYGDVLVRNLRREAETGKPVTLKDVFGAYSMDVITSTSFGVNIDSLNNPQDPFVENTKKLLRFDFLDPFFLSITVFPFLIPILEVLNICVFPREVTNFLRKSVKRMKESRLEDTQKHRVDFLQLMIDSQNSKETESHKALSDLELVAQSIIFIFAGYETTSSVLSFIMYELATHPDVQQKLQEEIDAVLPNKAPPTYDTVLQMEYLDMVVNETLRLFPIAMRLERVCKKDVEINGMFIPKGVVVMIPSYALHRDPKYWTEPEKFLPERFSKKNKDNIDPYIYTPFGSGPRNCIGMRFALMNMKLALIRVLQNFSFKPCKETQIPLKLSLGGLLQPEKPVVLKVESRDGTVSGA

Regarding `CN1CCN(C(=O)c2ccc(Nc3n[nH]c4ncc(Cc5cc(F)ccc5F)cc34)cc2)CC1`, the IC50 in data set [1] was 0.389 µM.

`O=C(c1cccc(Nc2n[nH]c3ncc(Cc4ccc(F)cc4)cc23)c1)N1CCOCC1`: the IC50 in [1] is 2.78 µM.

`O=C(c1cccc(Nc2n[nH]c3ncc(Cc4cccc(C(F)(F)F)c4)cc23)c1)N1CCOCC1`: the IC50 in data set [1] amounted to 16.7 µM.

For `O=C(c1cccc(Nc2n[nH]c3ncc(Cc4c(F)cccc4F)cc23)c1)N1CCOCC1`, the IC50 in data set [1] stood at 0.838 µM.

Consider `O=C(c1ccc(Nc2n[nH]c3ncc(Cc4cc(F)ccc4F)cc23)cc1)N1CCNCC1`, for which, in [1], the IC50 was found to be 0.409 µM.

Turning to `O=C(c1cccc(-c2n[nH]c3ncc(Cc4cc(F)ccc4F)cc23)c1)N1CCC[C@H](O)C1`, the results for the IC50 (in data set [2]; in data set [3]; against Focal adhesion kinase 1) were greater than 100 µM, 1.32 µM and greater than 100 µM, respectively.

Regarding `O=C(c1cccc(-c2n[nH]c3ncc(Cc4cc(F)ccc4F)cc23)c1)N1CCC[C@@H](O)C1`, the IC50 in data set [2] is greater than 100 µM; in data set [3], 0.69 µM; on Focal adhesion kinase 1 it was greater than 100 µM.

Consider `O=C(c1cccc(Nc2n[nH]c3ncc(Cc4ccc(F)c(F)c4)cc23)c1)N1CCOCC1`, for which the IC50 in data set [1] is greater than 100 µM.

Turning to `NC1CCN(C(=O)c2cccc(Nc3n[nH]c4ncc(Cc5cc(F)ccc5F)cc34)c2)CC1`, the IC50 in [1] turned out to be 0.437 µM.

As to `O=C(c1cccc(Nc2n[nH]c3ncc(Cc4cc(F)cc(F)c4)cc23)c1)N1CCOCC1`, the IC50 in data set [1] turned out to be 0.7 µM.

As to `O=C(c1cccc(Nc2n[nH]c3ncc(Cc4cc(F)ccc4F)cc23)c1)N1CCCC(O)C1` (configuration not stated), the IC50 in [1] came to 0.205 µM.

With `O=C(c1ccc(Nc2n[nH]c3ncc(Cc4cc(F)ccc4F)cc23)cc1)N1CCCC(O)C1` (configuration not stated), in data set [1], the half-maximal inhibitory concentration (IC50) came to 0.156 µM.

For the compound `O=C(c1ccc(Nc2n[nH]c3ncc(Cc4cc(F)ccc4F)cc23)cc1)N1CCOCC1`, the IC50 in [1] worked out at 0.98 µM.

Turning to `O=C(c1cccc(-c2n[nH]c3ncc(Cc4cc(F)ccc4F)cc23)c1)N1CCCC(O)C1` (configuration not stated), the remaining at 0 h, 100 µM in data set [4] came to 100%. The remaining at 10 min, 100 µM in [5] was found to be 104%. The IC50 in data set [2] was greater than 100 µM; in data set [3], 1.65 µM; against Focal adhesion kinase 1 it was greater than 100 µM. For the same compound, the remaining at 1 h, 100 µM in [6] was 93.6%. The inhibition at 0.25 h, 10 µM against CYP3A4 worked out at 0%; on CYP2C19, 48.6%; on CYP2D6, 25.8%; against CYP2C9, 66.6%; against CYP1A2, 16.6%. For the same compound, the remaining at 0.5 h, 100 µM in data set [7] amounted to 88%. Moreover, in data set [8], the half-life at 100 µM is greater than 4.82 h. Also, the remaining at 2 h, 100 µM in data set [9] worked out at 89.1%.

Take `O=C(c1cccc(Nc2n[nH]c3ncc(Cc4cccc(F)c4F)cc23)c1)N1CCOCC1`: the IC50 in [1] turned out to be 1.97 µM.

Take `O=C(c1cccc(-c2n[nH]c3ncc(Cc4cc(F)ccc4F)cc23)c1)N1CCC(O)CC1`: the IC50 in data set [1] amounted to 0.254 µM.

For `O=C(c1cccc(Nc2n[nH]c3ncc(Cc4cc(F)c(F)c(F)c4)cc23)c1)N1CCOCC1`, the IC50 in [1] was determined as 0.66 µM.

With `O=C(Nc1cnn2ccc(N3CCC[C@@H]3c3cc(F)ccc3F)nc12)N1CC[C@H](O)C1` [LAROTRECTINIB], the IC50 in the data set on MCF7 is greater than 40 µM; in the data set with KM12, 0.012 µM; in data set [10] it was less than 0.02 µM.

For the origin of these results see ChEMBL document CHEMBL5260856, “Design, synthesis and biological evaluation of pyrazolo[3,4-b]pyridine derivatives as TRK inhibitors” (RSC Med Chem, 2023).
